Reference: patent US10495796B2, “Near-infrared cut filter” (AGC INC., priority 2012, dated 2019)
Each block holds one compound with its values, some of them ahead of it.

What was measured:
[1] = Absorption characteristics: transmission spectrum of near-infrared absorbing layer of NIR filter (UV-visible spectrophotometer); assay type: physicochemical
Experimental: Further, the transmittance of the near-infrared absorbing layer can be measured by using an ultraviolet visible light spectrophotometer. For example, when the near-infrared absorbing layer is provided on a glass substrate, the transmittance is calculated by subtracting the transmittance of only the glass substrate. Note that the transmittance of light of the near-infrared absorbing layer refers to, unless otherwise stated, a ratio to light incident from a direction orthogonal to a main surface of a sample, the ratio of this light traveling straight inside the sample and transmitted to an opposite side. Further, when the transmittance is measured by making light incident from a direction other than the direction orthogonal to the main surface of the sample in the measurement of transmittance of light, an angle made by a straight line indicating the direction of the incident light to a line orthogonal to the main surface is called an incident angle.
In the condition (ii-3), the value calculated by nd(B)×(λa−λc) (hereinafter, this value may also be described as “Is value”) is a value to be an index indicating steepness of the absorption curve in the vicinity of the boundary between the visible light region and the near-infrared region with respect to a transmission spectrum of the near-infrared absorbing layer. When this value is 115 or less, the absorption curve in the vicinity of the boundary between the visible light region and the near-infrared region is steep with respect to the near-infrared absorbing layer, which can be said as preferable for the NIR filter.
That is, with respect to the transmission spectrum of the near-infrared absorbing layer, the smaller the difference (λa−λc) between the shortest wavelength λa with transmittance of 1% in the region of 650 nm to 800 nm and the wavelength λc with transmittance of 70% on a shorter wavelength side than the λa, the steeper the absorption curve in the vicinity of the boundary between the visible light region and the near-infrared region. Here, λa−λc also depends on a wavelength width having transmittance of 1% or less (λb−λa; λb is the longest wavelength with transmittance of 1% in the wavelength region of 650 nm to 800 nm). Accordingly, in order to compare and evaluate the steepness of the absorption curve in the above region of the transmission spectrum of the near-infrared absorbing layer, λb−λa is fixed to 30 nm. That is, λb−λa of the near-infrared absorbing layer which the present filter has is not limited to 30 nm.
Further, in the Is value, (λa−λc) is multiplied by the refractive index nd(B) of the transparent resin (B) contained in the near-infrared absorbing layer as a coefficient. This is to standardize the difference in steepness among resins.
Regarding transmittance (%/nm) of the NIR filters 1 to 109 obtained above, transmission spectra were measured and calculated by using an ultraviolet visible light spectrophotometer (U-4100 type spectrophotometer made by Hitachi High-Technologies Corporation). Analysis results of transmission spectra of the near-infrared absorbing layers which the NIR filters have are presented in Table 4, Table 5 and Table 6 for the NIR filters 1 to 25, 26 to 51, 52 to 75, respectively, and are presented in Table 7 and Table 8 for the NIR filters 76 to 94, 95 to 109, respectively. In Table 4 to Table 8, the ratios (parts by mass) of dyes to 100 parts by mass of the transparent resin (B) and film thicknesses of the near-infrared absorbing layers are described together.
Further, conditions of preferred transmission spectra of the near-infrared absorbing layers in the present filter and Is values obtained by the formula: nd(B)×(λa-λc) described in above (ii-3) are described in Table 4 to Table 8 together with λa in the condition (ii-1) and λb-λa in the condition (ii-2). Note that values described in Table 4 to Table 8 are values obtained by subtracting transmittance of a glass plate from transmittance of an NIR filter. […]

[2] = Solubility of dye to organic solvent; assay type: physicochemical; conditions: 50° C., mass % of the dye to the mass of the entire solution; for Solubility to organic solvent: MIBK: methyl isobutyl ketone
Experimental: Regarding the dyes (A11-1) to (A11-10) and (A11-20) to (A11-27) obtained above, solubility to organic solvent was evaluated as follows.
Three kinds of solvents, cyclohexanone, methyl isobutyl ketone (MIBK), toluene, were used as the organic solvent in the solubility test. Note that in Table 3, % is mass % of the dye to the mass of the entire solution. Further, the temperature of each organic solvent in the solubility test was 50° C.

[3] = transparent resin acrylic resin BR50, nd(B) 1.56, film thickness 2.3 μm
[4] = transparent resin polycarbonate EP5000, nd(B) 1.63, film thickness 2.4 μm
[5] = transparent resin polycarbonate SP3810, nd(B) 1.63, film thickness 1.0 μm
[6] = transparent resin polycarbonate SP3810, nd(B) 1.63, film thickness 2.8 μm
[7] = transparent resin polycarbonate SP1516, nd(B) 1.60, film thickness 0.9 μm

430 nm to 600 nm Average transmittance [1, 3]: 95.1%
Is value (nd(B)×(λa-λc)) [1, 3]: 110.9
λa [1, 3]: 689 nm
λa − λc [1, 3]: 71 nm
λb [1, 3]: 719 nm
λb − λa [1, 3]: 30 nm
λc [1, 3]: 618 nm
λmax [1, 3]: 706 nm
430 nm to 600 nm Average transmittance [1, 4]: 96.5%
Is value (nd(B)×(λa-λc)) [1, 4]: 111.0
λa [1, 4]: 694 nm
λa − λc [1, 4]: 68 nm
λb [1, 4]: 724 nm
λb − λa [1, 4]: 30 nm
λc [1, 4]: 626 nm
λmax [1, 4]: 711 nm
430 nm to 600 nm Average transmittance [1, 5]: 97.3%
Is value (nd(B)×(λa-λc)) [1, 5]: 112.8
λa [1, 5]: 694 nm
λa − λc [1, 5]: 69 nm
λb [1, 5]: 724 nm
λb − λa [1, 5]: 30 nm
λc [1, 5]: 625 nm
λmax [1, 5]: 706 nm
430 nm to 600 nm Average transmittance [1, 6]: 96%
Is value (nd(B)×(λa-λc)) [1, 6]: 112.8
λa [1, 6]: 695 nm
λa − λc [1, 6]: 69 nm
λb [1, 6]: 725 nm
λb − λa [1, 6]: 30 nm
λc [1, 6]: 626 nm
λmax [1, 6]: 711 nm
Solubility to organic solvent: Cyclohexanone [2]: 10%< mass %
Solubility to organic solvent: MIBK [2]: 2.50% mass %
Solubility to organic solvent: Toluene [2]: 10%< mass %
SMILES: CCCC(CCC)C(=O)Nc1cc2c(cc1C1=C([O-])C(=c3cc4c(cc3NC(=O)C(CCC)CCC)=[N+](C)C(C)C4(C)C)C1=O)C(C)(C)C(C)N2C (stereo not drawn) [Example A11-1]

430 nm to 600 nm Average transmittance [1, 7]: 95.3%
Is value (nd(B)×(λa-λc)) [1, 7]: 126.4
λa [1, 7]: 691 nm
λa − λc [1, 7]: 79 nm
λb [1, 7]: 721 nm
λb − λa [1, 7]: 30 nm
λc [1, 7]: 612 nm
λmax [1, 7]: 707 nm
Solubility to organic solvent: Cyclohexanone [2]: <1.0% mass %
Solubility to organic solvent: MIBK [2]: <1.0% mass %
Solubility to organic solvent: Toluene [2]: 1.00% mass %
SMILES: CCCCCC(=O)Nc1cc2c(cc1C1=C([O-])C(=c3cc4c(cc3NC(=O)CCCCC)=[N+](C)C(C)C4(C)C)C1=O)C(C)(C)C(C)N2C (stereo not drawn) [Example A11-22, reference compound]

430 nm to 600 nm Average transmittance [1, 3]: 95%
Is value (nd(B)×(λa-λc)) [1, 3]: 110.9
λa [1, 3]: 688 nm
λa − λc [1, 3]: 71 nm
λb [1, 3]: 718 nm
λb − λa [1, 3]: 30 nm
λc [1, 3]: 617 nm
λmax [1, 3]: 705 nm
430 nm to 600 nm Average transmittance [1, 4]: 95.7%
Is value (nd(B)×(λa-λc)) [1, 4]: 112.6
λa [1, 4]: 693 nm
λa − λc [1, 4]: 69 nm
λb [1, 4]: 723 nm
λb − λa [1, 4]: 30 nm
λc [1, 4]: 624 nm
λmax [1, 4]: 709 nm
430 nm to 600 nm Average transmittance [1, 5]: 96.8%
Is value (nd(B)×(λa-λc)) [1, 5]: 112.8
λa [1, 5]: 693 nm
λa − λc [1, 5]: 69 nm
λb [1, 5]: 723 nm
λb − λa [1, 5]: 30 nm
λc [1, 5]: 624 nm
λmax [1, 5]: 705 nm
430 nm to 600 nm Average transmittance [1, 6]: 95.9%
Is value (nd(B)×(λa-λc)) [1, 6]: 111.2
λa [1, 6]: 693 nm
λa − λc [1, 6]: 68 nm
λb [1, 6]: 723 nm
λb − λa [1, 6]: 30 nm
λc [1, 6]: 625 nm
λmax [1, 6]: 709 nm
Solubility to organic solvent: Cyclohexanone [2]: 10%< mass %
Solubility to organic solvent: MIBK [2]: 10%< mass %
Solubility to organic solvent: Toluene [2]: 10%< mass %
SMILES: CC(CCC(C(=O)Nc1cc2c(cc1C1=C([O-])C(=c3cc4c(cc3NC(=O)C(CCC(C)CC(C)(C)C)C(C)CC(C)(C)C)=[N+](C)C(C)C4(C)C)C1=O)C(C)(C)C(C)N2C)C(C)CC(C)(C)C)CC(C)(C)C (stereo not drawn) [Example A11-4]

430 nm to 600 nm Average transmittance [1, 3]: 95%
Is value (nd(B)×(λa-λc)) [1, 3]: 112.4
λa [1, 3]: 689 nm
λa − λc [1, 3]: 72 nm
λb [1, 3]: 719 nm
λb − λa [1, 3]: 30 nm
λc [1, 3]: 617 nm
λmax [1, 3]: 706 nm
430 nm to 600 nm Average transmittance [1, 4]: 96.2%
Is value (nd(B)×(λa-λc)) [1, 4]: 112.6
λa [1, 4]: 694 nm
λa − λc [1, 4]: 69 nm
λb [1, 4]: 724 nm
λb − λa [1, 4]: 30 nm
λc [1, 4]: 625 nm
λmax [1, 4]: 711 nm
430 nm to 600 nm Average transmittance [1, 5]: 96.1%
Is value (nd(B)×(λa-λc)) [1, 5]: 114.4
λa [1, 5]: 694 nm
λa − λc [1, 5]: 70 nm
λb [1, 5]: 724 nm
λb − λa [1, 5]: 30 nm
λc [1, 5]: 624 nm
λmax [1, 5]: 706 nm
430 nm to 600 nm Average transmittance [1, 6]: 95.5%
Is value (nd(B)×(λa-λc)) [1, 6]: 112.8
λa [1, 6]: 694 nm
λa − λc [1, 6]: 69 nm
λb [1, 6]: 724 nm
λb − λa [1, 6]: 30 nm
λc [1, 6]: 625 nm
λmax [1, 6]: 710 nm
Solubility to organic solvent: Cyclohexanone [2]: 10%< mass %
Solubility to organic solvent: MIBK [2]: 10%< mass %
Solubility to organic solvent: Toluene [2]: 5.00% mass %
SMILES: CCCCC(CC)C(=O)Nc1cc2c(cc1C1=C([O-])C(=c3cc4c(cc3NC(=O)C(CC)CCCC)=[N+](C)C(C)C4(C)C)C1=O)C(C)(C)C(C)N2C (stereo not drawn) [Example A11-2]

430 nm to 600 nm Average transmittance [1, 3]: 94.5%
Is value (nd(B)×(λa-λc)) [1, 3]: 129.6
λa [1, 3]: 688 nm
λa − λc [1, 3]: 83 nm
λb [1, 3]: 718 nm
λb − λa [1, 3]: 30 nm
λc [1, 3]: 605 nm
λmax [1, 3]: 705 nm
430 nm to 600 nm Average transmittance [1, 4]: 95.5%
Is value (nd(B)×(λa-λc)) [1, 4]: 120.8
λa [1, 4]: 693 nm
λa − λc [1, 4]: 69 nm
λb [1, 4]: 723 nm
λb − λa [1, 4]: 30 nm
λc [1, 4]: 619 nm
λmax [1, 4]: 710 nm
430 nm to 600 nm Average transmittance [1, 7]: 95.6%
Is value (nd(B)×(λa-λc)) [1, 7]: 124.8
λa [1, 7]: 690 nm
λa − λc [1, 7]: 78 nm
λb [1, 7]: 720 nm
λb − λa [1, 7]: 30 nm
λc [1, 7]: 612 nm
λmax [1, 7]: 707 nm
430 nm to 600 nm Average transmittance [1, 5]: 94.6%
Is value (nd(B)×(λa-λc)) [1, 5]: 122.6
λa [1, 5]: 693 nm
λa − λc [1, 5]: 75 nm
λb [1, 5]: 723 nm
λb − λa [1, 5]: 30 nm
λc [1, 5]: 618 nm
λmax [1, 5]: 710 nm
430 nm to 600 nm Average transmittance [1, 6]: 95.3%
Is value (nd(B)×(λa-λc)) [1, 6]: 119.3
λa [1, 6]: 694 nm
λa − λc [1, 6]: 73 nm
λb [1, 6]: 724 nm
λb − λa [1, 6]: 30 nm
λc [1, 6]: 621 nm
λmax [1, 6]: 710 nm
Solubility to organic solvent: Cyclohexanone [2]: 3.00% mass %
Solubility to organic solvent: MIBK [2]: 1.00% mass %
Solubility to organic solvent: Toluene [2]: 10%< mass %
SMILES: CCCCCCCCCCCC(=O)Nc1cc2c(cc1C1=C([O-])C(=c3cc4c(cc3NC(=O)CCCCCCCCCCC)=[N+](C)C(C)C4(C)C)C1=O)C(C)(C)C(C)N2C (stereo not drawn) [Example A11-25, reference compound]
